Test systems include SK-MEL-28 melanoma; A549 NSCLC; M14 melanoma; NCI-H23 lung; LOX IMVI melanoma; MOLT-4 leukemia; KM12 colon; MALME-3M melanoma; CCRF-CEM leukemia; MDA-MB-435.
What all share (assay): NCI anticancer screen, dose series, 48 h

Structures are written as SMILES. Where “and” joins values, the source holds several entries; their conditions need not be identical. Equal entries are not always repeated.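 A five-concentration, 48-hour dose response in 96-well plates underlies each endpoint, interpolated linearly between surrounding concentrations. GI50: concentration for 50% inhibition of growth. Definition used: TGI = concentration required for complete inhibition of growth.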 Where only a bound is given, the exact number is not on record here.

In the case of `Cc1nn2c(nc1=O)sc1ccc3ccccc3c12`, the TGI in the test with SK-MEL-28 melanoma, with A549 NSCLC, in the test on M14 melanoma, in the test on NCI-H23 lung, in the test with LOX IMVI melanoma and in the test with MOLT-4 leukemia was over 100 µM throughout. Moreover, the TGI in the test with KM12 colon, with MALME-3M melanoma and in the test with CCRF-CEM leukemia was over 100 µM each time.

For `C(=N\Nc1ccccc1)/c1nc2ccccc2nc1/C=N/Nc1ccccc1`, the TGI turned out to be 31.7 µM in the test with SK-MEL-28 melanoma; 28.8 µM in the test with A549 NSCLC; 30 µM in the test on M14 melanoma; 27.2 µM in the test on NCI-H23 lung; 22.1 µM in the test with LOX IMVI melanoma; 79.8 µM in the test on MOLT-4 leukemia. In addition, the figures for the TGI in the test with KM12 colon, in the test on MALME-3M melanoma and in the test with CCRF-CEM leukemia were 41 µM, 41.6 µM and over 100 µM, respectively.

For the compound `COC(=O)C1=CO[C@@H](OC2OC(CO)C(O)C(O)C2O)[C@H]2[C@@H](C)[C@@H](O)[C@@H](O)[C@@H]12` (stereo partly drawn), the TGI in the test on SK-MEL-28 melanoma, in the test on A549 NSCLC, in the test with M14 melanoma, in the test on MDA-MB-435, in the test on NCI-H23 lung and with LOX IMVI melanoma was over 100 µM in each case. In addition, the TGI in the test on MOLT-4 leukemia, with KM12 colon and in the test with MALME-3M melanoma was over 100 µM throughout.

`N#CCCCCCOCCOCCOCCOCCOCCCCCC#N`: the TGI with SK-MEL-28 melanoma, in the test on A549 NSCLC, in the test with M14 melanoma, in the test on NCI-H23 lung, in the test on LOX IMVI melanoma and in the test with MOLT-4 leukemia was over 100 µM throughout. For the same compound, the TGI in the test with KM12 colon, with MALME-3M melanoma and with CCRF-CEM leukemia was over 100 µM in each case.

Consider `O=C(NCc1cccnc1)C1COc2cc(-c3cc(=O)c4ccccc4o3)ccc2O1` (stereo not drawn), for which the TGI with SK-MEL-28 melanoma is over 28.7 µM; in the test on A549 NSCLC, over 100 µM; in the test with M14 melanoma, over 100 µM; in the test on NCI-H23 lung it was over 100 µM; in the test with LOX IMVI melanoma, over 63.1 µM; with MOLT-4 leukemia, over 100 µM. In addition, the TGI in the test with KM12 colon, in the test with MALME-3M melanoma and with CCRF-CEM leukemia was over 100 µM in each case.

With `COc1ccc(NC(=O)CC/C(CC(=O)c2ccco2)=N/NC(N)=S)cc1`, the TGI with A549 NSCLC, in the test on M14 melanoma, in the test on NCI-H23 lung, in the test on LOX IMVI melanoma, in the test with MOLT-4 leukemia and in the test on KM12 colon was over 100 µM throughout. Also, the TGI with MALME-3M melanoma and in the test with CCRF-CEM leukemia was over 100 µM throughout.

As to `CC1(Br)CC2OC3(Br)C=CC(C)(O)C2(CC1=O)C3(C)C` (stereo not drawn), the TGI in the test on SK-MEL-28 melanoma, with A549 NSCLC, in the test with M14 melanoma, with NCI-H23 lung, in the test on LOX IMVI melanoma and in the test with MOLT-4 leukemia was over 100 µM throughout. Further, the values for the TGI in the test with KM12 colon, with MALME-3M melanoma and with CCRF-CEM leukemia were over 100 µM, over 100 µM and over 36 µM, respectively.

For the compound `CC[C@@]1(O)C(=O)OCc2c1cc1n(c2=O)Cc2cc3cccc([N+](=O)[O-])c3nc2-1`, the GI50 in the test on SK-MEL-28 melanoma was 43.9 µM; with A549 NSCLC, 0.6 µM; with M14 melanoma, 1.05 µM; with NCI-H23 lung it was 0.486 µM; in the test on LOX IMVI melanoma, 0.429 µM; with KM12 colon, 4.82 µM. Further, the results for the GI50 in the test on MALME-3M melanoma and with CCRF-CEM leukemia were 4.35 µM and 0.0506 µM, respectively. The TGI in the test with SK-MEL-28 melanoma was over 100 µM; in the test on A549 NSCLC, 41.5 µM; with M14 melanoma, 12.5 µM; with NCI-H23 lung it was 4.19 µM; in the test on LOX IMVI melanoma it was 6.14 µM; with KM12 colon, 35.6 µM. Further, the TGI was over 100 µM in the test on MALME-3M melanoma and 50.4 µM with CCRF-CEM leukemia.

For the compound `CCOC(=O)NC/C=C/COC1CCCCO1` (stereo not drawn), the TGI with SK-MEL-28 melanoma, in the test with A549 NSCLC, in the test with M14 melanoma, with MOLT-4 leukemia, in the test with KM12 colon and with MALME-3M melanoma was over 100 µM in each case. Also, in the test on CCRF-CEM leukemia, the TGI was over 100 µM.

For the compound `Cc1cc(C)n(-c2ccnc3cc(Cl)ccc23)n1`, the TGI in the test with SK-MEL-28 melanoma, in the test on A549 NSCLC, with M14 melanoma, with NCI-H23 lung, with LOX IMVI melanoma and in the test with MOLT-4 leukemia was over 100 µM in each case. In addition, the TGI in the test on KM12 colon, with MALME-3M melanoma and with CCRF-CEM leukemia was over 100 µM throughout.

For the compound `CCCCNC(=O)C1C(=O)N(CCCC)C(=O)/C1=N\N` (stereo not drawn), the TGI in the test on SK-MEL-28 melanoma, in the test on M14 melanoma, in the test with NCI-H23 lung, with LOX IMVI melanoma, in the test with MOLT-4 leukemia and in the test on KM12 colon was over 100 µM in each case. Further, the TGI in the test on MALME-3M melanoma was over 100 µM.

For `Nc1nc(Cl)cc(NCC(O)CO)n1` (stereo not drawn), the TGI with SK-MEL-28 melanoma, in the test on A549 NSCLC, in the test on M14 melanoma, in the test on NCI-H23 lung, in the test with LOX IMVI melanoma and with MOLT-4 leukemia was over 100 µM in each case. Also, the TGI in the test with KM12 colon, with MALME-3M melanoma and in the test on CCRF-CEM leukemia was over 100 µM in each case.

Take `COc1ccc2c(c1)[nH]c(=O)c1c3ccccc3cn21`: the GI50 with A549 NSCLC was 0.067 µM; in the test on LOX IMVI melanoma, 0.0712 µM; in the test with MOLT-4 leukemia it was 0.0778 µM; with KM12 colon, 0.0331 µM and < 0.0486 µM; in the test on CCRF-CEM leukemia, 0.03 µM. Also, the TGI was 1.65 µM and 1.69 µM in the test with A549 NSCLC; 12.9 µM with M14 melanoma; 3.39 µM and 14.6 µM with NCI-H23 lung; 1.77 µM and 2.09 µM in the test with LOX IMVI melanoma; 2.14 µM and 9.95 µM with MOLT-4 leukemia; 14.9 µM in the test on MALME-3M melanoma.

Take `COc1cc(C(=O)N2CCN(c3ccccc3)CC2)c2ccccc2n1`: the GI50 is over 100 µM in the test with SK-MEL-28 melanoma; 0.101 µM with A549 NSCLC; 0.0582 µM with M14 melanoma; 0.225 µM in the test on NCI-H23 lung; 0.086 µM with LOX IMVI melanoma; 0.863 µM in the test with MOLT-4 leukemia. Further, the figures for the GI50 in the test on KM12 colon, in the test with MALME-3M melanoma and in the test with CCRF-CEM leukemia were 0.0412 µM, 0.0484 µM and 0.128 µM, respectively. Besides, the TGI was over 100 µM in the test on SK-MEL-28 melanoma; over 100 µM with A549 NSCLC; 0.805 µM in the test on M14 melanoma; over 100 µM with NCI-H23 lung; over 52 µM with LOX IMVI melanoma; over 100 µM with MOLT-4 leukemia. Moreover, the TGI with KM12 colon was 5.19 µM; in the test with MALME-3M melanoma, over 100 µM; in the test with CCRF-CEM leukemia it was over 100 µM.

In the case of `O=c1c2ccccc2nc(/C=C(\O)c2ccncc2)n1-c1ccc(Cl)cc1`, the TGI in the test with SK-MEL-28 melanoma, with A549 NSCLC, in the test on M14 melanoma, with NCI-H23 lung, with MOLT-4 leukemia and with KM12 colon was over 100 µM in each case. In addition, the TGI in the test with MALME-3M melanoma and with CCRF-CEM leukemia was over 100 µM each time.

For `Cc1cc(Nc2ncc3c(n2)N(C)C(=O)N(c2cc(NC(=O)c4cccc(C(F)(F)F)c4)ccc2C)C3)n(C)n1`, the GI50 is 0.02 µM in the test with SK-MEL-28 melanoma; 0.044 µM in the test on A549 NSCLC; under 0.01 µM in the test on M14 melanoma; 0.0733 µM with NCI-H23 lung; 0.0131 µM in the test with LOX IMVI melanoma; 0.135 µM with MOLT-4 leukemia. For the same compound, the GI50 in the test with KM12 colon was 0.321 µM; in the test with MALME-3M melanoma, under 0.0124 µM; in the test with CCRF-CEM leukemia, 2.36 µM. The TGI with SK-MEL-28 melanoma is 0.15 µM; with A549 NSCLC, 0.417 µM; in the test on M14 melanoma it was 0.096 µM; with NCI-H23 lung it was over 31.6 µM; with LOX IMVI melanoma, 0.0305 µM; in the test with MOLT-4 leukemia it was over 46.4 µM. Further, the TGI was over 46.4 µM in the test on KM12 colon, 0.0489 µM in the test with MALME-3M melanoma and over 46.4 µM in the test with CCRF-CEM leukemia.

For the compound `O=C(OC1CCC2OOC1O2)c1ccc([N+](=O)[O-])cc1` (stereo not drawn), the TGI in the test on SK-MEL-28 melanoma, in the test on A549 NSCLC, with M14 melanoma, in the test with NCI-H23 lung, in the test with LOX IMVI melanoma and in the test on MOLT-4 leukemia was over 100 µM throughout. In addition, the TGI in the test with KM12 colon, with MALME-3M melanoma and with CCRF-CEM leukemia was over 100 µM each time.

As to `CCOC(=O)C(N=C(c1ccccc1)c1ccccc1)N(C(=O)OC(C)(C)C)C(=O)OC(C)(C)C` (stereo not drawn), the TGI in the test with SK-MEL-28 melanoma, in the test with A549 NSCLC, in the test with NCI-H23 lung, with MOLT-4 leukemia, in the test on KM12 colon and in the test with MALME-3M melanoma was over 100 µM in each case.

As to `CCCNCC(=O)O[C@]1(CC)C(=O)OCc2c1cc1n(c2=O)Cc2cc3ccccc3nc2-1`, the TGI with SK-MEL-28 melanoma was found to be 32.8 µM; with A549 NSCLC, 1.98 µM; in the test with M14 melanoma, 1.82 µM; with NCI-H23 lung, 0.321 µM; with LOX IMVI melanoma, 0.662 µM; with MOLT-4 leukemia, 0.0699 µM. The TGI with KM12 colon is 8.05 µM; with MALME-3M melanoma it was 4.1 µM; with CCRF-CEM leukemia, 0.308 µM.

For `CCC(O)C1Cc2c(C)cc3c(c2O1)C(=O)c1ccccc1C3=O` (stereo not drawn), the TGI in the test with SK-MEL-28 melanoma is over 100 µM; in the test with A549 NSCLC, over 100 µM; in the test with M14 melanoma, over 100 µM; with NCI-H23 lung, over 100 µM; in the test on LOX IMVI melanoma, 93.7 µM; in the test with MOLT-4 leukemia, over 100 µM. Also, the TGI in the test on KM12 colon was over 100 µM; with MALME-3M melanoma it was 88.6 µM; in the test with CCRF-CEM leukemia, over 100 µM.
